Patent publication US20100016547A1, “Glycosilated Peptide and Medicine Comprising It as an Effective Ingredient” (priority 2005, published 2010)
Peptide text beside a SMILES is read from it. * marks the point of attachment. NH(β-GlcNAc) = CC(=O)N[C@@H]1[C@@H](O)[C@H](O)[C@@H](CO)O[C@H]1N*

Experiments:
GLP-1 receptor [1] = biological target: T1, GLP-1 receptor (Homo sapiens, UniProt P43220); experiment: Assay for production of cAMP
GLP-1 receptor [2] = biological target: T1, GLP-1 receptor
Method: After being incubated at room temperature for 2 hours, the solution was filtered through a unifilter 96GF/C plate (Perkin-Elmer) pretreated with 1% polyethylenimine containing 0.5% BSA, washed with 25 mM HEPES buffer solution (pH 7.4) containing 0.5% BSA, and radioactivity remained on the filter was measured by a gamma counter (Top Counter; Perkin-Elmer).

T1 sequence (P43220 24-463, species assumed): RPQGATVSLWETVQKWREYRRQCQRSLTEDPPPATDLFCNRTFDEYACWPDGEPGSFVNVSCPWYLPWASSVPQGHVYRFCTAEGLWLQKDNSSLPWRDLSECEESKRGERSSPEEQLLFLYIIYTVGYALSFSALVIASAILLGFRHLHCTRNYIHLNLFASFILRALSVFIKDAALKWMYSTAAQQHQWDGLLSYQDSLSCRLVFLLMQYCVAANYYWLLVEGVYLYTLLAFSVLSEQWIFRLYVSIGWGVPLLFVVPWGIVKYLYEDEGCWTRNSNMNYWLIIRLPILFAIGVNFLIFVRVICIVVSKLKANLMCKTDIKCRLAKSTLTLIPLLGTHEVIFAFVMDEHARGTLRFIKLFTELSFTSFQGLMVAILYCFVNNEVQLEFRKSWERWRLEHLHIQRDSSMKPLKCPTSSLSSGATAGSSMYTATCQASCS

SMILES	EC50 (GLP-1 receptor [1]) [nM]	IC50 (GLP-1 receptor [2]) [nM]
CC[C@H](C)[C@H](NC(=O)[C@H](Cc1ccccc1)NC(=O)[C@H](CCC(=O)O)NC(=O)[C@H](CC(=O)N[C@@H]1O[C@H](CO)[C@@H](O[C@@H]2O[C@H](CO[C@]3(C(=O)O)C[C@H](O)[C@@H](NC(C)=O)[C@H]([C@H](O)[C@H](O)CO)O3)[C@H](O)[C@H](O)[C@H]2O)[C@H](O)[C@H]1NC(C)=O)NC(=O)[C@H](C)NC(=O)[C@H](C)NC(=O)[C@H](CCC(N)=O)NC(=O)CNC(=O)[C@H](CCC(=O)O)NC(=O)[C@H](CC(C)C)NC(=O)[C@H](Cc1ccc(O)cc1)NC(=O)[C@H](CO)NC(=O)[C@H](CO)NC(=O)[C@@H](NC(=O)[C@H](CC(=O)O)NC(=O)[C@H](CO)NC(=O)[C@@H](NC(=O)[C@H](Cc1ccccc1)NC(=O)[C@@H](NC(=O)CNC(=O)[C@H](CCC(=O)O)NC(=O)[C@H](C)NC(=O)[C@@H](N)Cc1c[nH]cn1)[C@@H](C)O)[C@@H](C)O)C(C)C)C(=O)N[C@@H](C)C(=O)N[C@@H](Cc1c[nH]c2ccccc12)C(=O)N[C@@H](CC(C)C)C(=O)N[C@H](C(=O)N[C@@H](CCCCN)C(=O)NCC(=O)N[C@@H](CCCNC(=N)N)C(N)=O)C(C)C [GL26NS6]	0.92	2.9
CC[C@H](C)[C@H](NC(=O)[C@H](Cc1ccccc1)NC(=O)[C@H](CCC(=O)O)NC(=O)[C@H](CCCCN)NC(=O)[C@H](C)NC(=O)[C@H](C)NC(=O)[C@H](CCC(N)=O)NC(=O)CNC(=O)[C@H](CCC(=O)O)NC(=O)[C@H](CC(C)C)NC(=O)[C@H](CC(=O)N[C@@H]1O[C@H](CO)[C@@H](O)[C@H](O)[C@H]1NC(C)=O)NC(=O)[C@H](CO)NC(=O)[C@H](CO)NC(=O)[C@@H](NC(=O)[C@H](CC(=O)O)NC(=O)[C@H](CO)NC(=O)[C@@H](NC(=O)[C@H](Cc1ccccc1)NC(=O)[C@@H](NC(=O)CNC(=O)[C@H](CCC(=O)O)NC(=O)[C@H](C)NC(=O)[C@@H](N)Cc1c[nH]cn1)[C@@H](C)O)[C@@H](C)O)C(C)C)C(=O)N[C@@H](C)C(=O)N[C@@H](Cc1c[nH]c2ccccc12)C(=O)N[C@@H](CC(C)C)C(=O)N[C@H](C(=O)N[C@@H](CCCCN)C(=O)NCC(=O)N[C@@H](CCCNC(=N)N)C(N)=O)C(C)C [GL19NG] (H-HAEGTFTSDVSSD(NH(β-GlcNAc))LEGQAAKEFIAWLVKGR-NH2)	8.1	41
CC[C@H](C)[C@H](NC(=O)[C@H](Cc1ccccc1)NC(=O)[C@H](CCC(=O)O)NC(=O)[C@H](CC(=O)N[C@@H]1O[C@H](CO)[C@@H](O[C@@H]2O[C@H](CO[C@]3(C(=O)O)C[C@H](O)[C@@H](NC(C)=O)[C@H]([C@H](O)[C@H](O)CO)O3)[C@H](O)[C@H](O)[C@H]2O)[C@H](O)[C@H]1NC(C)=O)NC(=O)[C@H](C)NC(=O)[C@H](C)NC(=O)[C@H](CCC(N)=O)NC(=O)CNC(=O)[C@H](CCC(=O)O)NC(=O)[C@H](CC(C)C)NC(=O)[C@H](Cc1ccc(O)cc1)NC(=O)[C@H](CO)NC(=O)[C@H](CO)NC(=O)[C@@H](NC(=O)[C@H](CC(=O)O)NC(=O)[C@H](CO)NC(=O)[C@@H](NC(=O)[C@H](Cc1ccccc1)NC(=O)[C@@H](NC(=O)CNC(=O)[C@H](CCC(=O)O)NC(=O)[C@H](C)NC(=O)[C@@H](N)Cc1c[nH]cn1)[C@@H](C)O)[C@@H](C)O)C(C)C)C(=O)N[C@@H](C)C(=O)N[C@@H](Cc1c[nH]c2ccccc12)C(=O)N[C@@H](CC(C)C)C(=O)N[C@H](C(=O)N[C@@H](CCCCN)C(=O)NCC(=O)N[C@@H](CCCNC(=N)N)C(=O)N[C@@H](CC(=O)N[C@@H]1O[C@H](CO)[C@@H](O[C@@H]2O[C@H](CO[C@]3(C(=O)O)C[C@H](O)[C@@H](NC(C)=O)[C@H]([C@H](O)[C@H](O)CO)O3)[C@H](O)[C@H](O)[C@H]2O)[C@H](O)[C@H]1NC(C)=O)C(N)=O)C(C)C [GL2637NS6]	1	21
CC[C@H](C)[C@H](NC(=O)[C@H](Cc1ccccc1)NC(=O)[C@H](CCC(=O)O)NC(=O)[C@H](CCCCN)NC(=O)[C@H](C)NC(=O)[C@H](C)NC(=O)[C@H](CCC(N)=O)NC(=O)CNC(=O)[C@H](CCC(=O)O)NC(=O)[C@H](CC(C)C)NC(=O)[C@H](Cc1ccc(O)cc1)NC(=O)[C@H](CO)NC(=O)[C@H](CO)NC(=O)[C@@H](NC(=O)[C@H](CC(=O)O)NC(=O)[C@H](CO)NC(=O)[C@@H](NC(=O)[C@H](Cc1ccccc1)NC(=O)[C@@H](NC(=O)CNC(=O)[C@H](CCC(=O)O)NC(=O)[C@H](C)NC(=O)[C@@H](N)Cc1c[nH]cn1)[C@@H](C)O)[C@@H](C)O)C(C)C)C(=O)N[C@@H](C)C(=O)N[C@@H](Cc1c[nH]c2ccccc12)C(=O)N[C@@H](CC(C)C)C(=O)N[C@H](C(=O)N[C@@H](CSCC(=O)N[C@@H](CC(=O)N[C@@H]1O[C@H](CO)[C@@H](O[C@@H]2O[C@H](CO)[C@@H](O[C@@H]3O[C@H](CO[C@H]4O[C@H](CO)[C@@H](O)[C@H](O)[C@@H]4O[C@@H]4O[C@H](CO)[C@@H](O[C@@H]5O[C@H](CO[C@]6(C(=O)O)C[C@H](O)[C@@H](NC(C)=O)[C@H]([C@H](O)[C@H](O)CO)O6)[C@H](O)[C@H](O)[C@H]5O)[C@H](O)[C@H]4NC(C)=O)[C@@H](O)[C@H](O[C@H]4O[C@H](CO)[C@@H](O)[C@H](O)[C@@H]4O[C@@H]4O[C@H](CO)[C@@H](O[C@@H]5O[C@H](CO[C@]6(C(=O)O)C[C@H](O)[C@@H](NC(C)=O)[C@H]([C@H](O)[C@H](O)CO)O6)[C@H](O)[C@H](O)[C@H]5O)[C@H](O)[C@H]4NC(C)=O)[C@@H]3O)[C@H](O)[C@H]2NC(C)=O)[C@H](O)[C@H]1NC(C)=O)C(=O)O)C(=O)NCC(=O)N[C@@H](CCCNC(=N)N)C(=O)N[C@@H](CSCC(=O)N[C@@H](CC(=O)N[C@@H]1O[C@H](CO)[C@@H](O[C@@H]2O[C@H](CO)[C@@H](O[C@@H]3O[C@H](CO[C@H]4O[C@H](CO)[C@@H](O)[C@H](O)[C@@H]4O[C@@H]4O[C@H](CO)[C@@H](O[C@@H]5O[C@H](CO[C@]6(C(=O)O)C[C@H](O)[C@@H](NC(C)=O)[C@H]([C@H](O)[C@H](O)CO)O6)[C@H](O)[C@H](O)[C@H]5O)[C@H](O)[C@H]4NC(C)=O)[C@@H](O)[C@H](O[C@H]4O[C@H](CO)[C@@H](O)[C@H](O)[C@@H]4O[C@@H]4O[C@H](CO)[C@@H](O[C@@H]5O[C@H](CO[C@]6(C(=O)O)C[C@H](O)[C@@H](NC(C)=O)[C@H]([C@H](O)[C@H](O)CO)O6)[C@H](O)[C@H](O)[C@H]5O)[C@H](O)[C@H]4NC(C)=O)[C@@H]3O)[C@H](O)[C@H]2NC(C)=O)[C@H](O)[C@H]1NC(C)=O)C(=O)O)C(N)=O)C(C)C [GL3437CE1]	4.1	30
CC[C@H](C)[C@H](NC(=O)[C@H](Cc1ccccc1)NC(=O)[C@H](CCC(=O)O)NC(=O)[C@H](CCCCN)NC(=O)[C@H](C)NC(=O)[C@H](C)NC(=O)[C@H](CCC(N)=O)NC(=O)CNC(=O)[C@H](CCC(=O)O)NC(=O)[C@H](CC(C)C)NC(=O)[C@H](Cc1ccc(O)cc1)NC(=O)[C@H](CO)NC(=O)[C@H](CO)NC(=O)[C@@H](NC(=O)[C@H](CC(=O)O)NC(=O)[C@H](CO)NC(=O)[C@@H](NC(=O)[C@H](Cc1ccccc1)NC(=O)[C@@H](NC(=O)CNC(=O)[C@H](CCC(=O)O)NC(=O)[C@H](C)NC(=O)[C@@H](N)Cc1c[nH]cn1)[C@@H](C)O)[C@@H](C)O)C(C)C)C(=O)N[C@@H](C)C(=O)N[C@@H](Cc1c[nH]c2ccccc12)C(=O)N[C@@H](CC(C)C)C(=O)N[C@H](C(=O)N[C@@H](CSCC(=O)N[C@@H](CCC(=O)N[C@@H](CC(=O)N[C@@H]1O[C@H](CO)[C@@H](O[C@@H]2O[C@H](CO)[C@@H](O[C@@H]3O[C@H](CO[C@H]4O[C@H](CO)[C@@H](O)[C@H](O)[C@@H]4O[C@@H]4O[C@H](CO)[C@@H](O[C@@H]5O[C@H](CO[C@]6(C(=O)O)C[C@H](O)[C@@H](NC(C)=O)[C@H]([C@H](O)[C@H](O)CO)O6)[C@H](O)[C@H](O)[C@H]5O)[C@H](O)[C@H]4NC(C)=O)[C@@H](O)[C@H](O[C@H]4O[C@H](CO)[C@@H](O)[C@H](O)[C@@H]4O[C@@H]4O[C@H](CO)[C@@H](O[C@@H]5O[C@H](CO[C@]6(C(=O)O)C[C@H](O)[C@@H](NC(C)=O)[C@H]([C@H](O)[C@H](O)CO)O6)[C@H](O)[C@H](O)[C@H]5O)[C@H](O)[C@H]4NC(C)=O)[C@@H]3O)[C@H](O)[C@H]2NC(C)=O)[C@H](O)[C@H]1NC(C)=O)C(=O)O)C(=O)N[C@@H](CC(=O)N[C@@H]1O[C@H](CO)[C@@H](O[C@@H]2O[C@H](CO)[C@@H](O[C@@H]3O[C@H](CO[C@H]4O[C@H](CO)[C@@H](O)[C@H](O)[C@@H]4O[C@@H]4O[C@H](CO)[C@@H](O[C@@H]5O[C@H](CO[C@]6(C(=O)O)C[C@H](O)[C@@H](NC(C)=O)[C@H]([C@H](O)[C@H](O)CO)O6)[C@H](O)[C@H](O)[C@H]5O)[C@H](O)[C@H]4NC(C)=O)[C@@H](O)[C@H](O[C@H]4O[C@H](CO)[C@@H](O)[C@H](O)[C@@H]4O[C@@H]4O[C@H](CO)[C@@H](O[C@@H]5O[C@H](CO[C@]6(C(=O)O)C[C@H](O)[C@@H](NC(C)=O)[C@H]([C@H](O)[C@H](O)CO)O6)[C@H](O)[C@H](O)[C@H]5O)[C@H](O)[C@H]4NC(C)=O)[C@@H]3O)[C@H](O)[C@H]2NC(C)=O)[C@H](O)[C@H]1NC(C)=O)C(=O)O)C(=O)NCC(=O)N[C@@H](CCCNC(=N)N)C(N)=O)C(C)C [GL34CE2]	3.4	20
